Experimental data: PMC5146859, “Phase 1/2 study of pacritinib, a next generation JAK2/FLT3 inhibitor, in myelofibrosis or other myeloid malignancies” (Journal of Hematology & Oncology, 2016)

What was measured:
[1] = system: patients with advanced myeloid malignancies (MF, AML); assay: Phase 1 clinical benefit rate (IWG criteria); assay type: in vivo, human
Method: At screening/baseline, patients underwent a medical history, physical examination, vital sign assessment, ECOG PS assessment, electrocardiogram, and assessment of hematologic parameters and blood chemistry. Hematology/blood chemistry, physical examinations, and vital sign assessments were performed throughout treatment. Toxicity was assessed using the National Cancer Institute Common Terminology Criteria for Adverse Events (NCIC-CTCAE), version 3.0, with relationship to treatment assigned by the investigator and were recorded from the first dose of pacritinib until 30 days after the last dose. Bone marrow biopsy and/or aspirate samples were drawn at baseline, on day 1 of cycle 4 and cycle 10, as clinically indicated, and at the termination visit. Disease response and progression were determined using the relevant International Working Group (IWG) criteria. The primary objective of phase 1 was to establish the MTD of pacritinib in patients with advanced myeloid malignancies, defined as the highest dose level at which no more than one out of six patients in the cohort experienced a DLT during cycle 1 ([…]) of therapy. […] Secondary objectives in phase 1 of the study included safety and PK analysis. Clinical benefit rate was assessed as an exploratory endpoint, defined as the proportion of patients who experienced a complete response, partial response, clinical improvement, or stable disease (SD) during the study.

patients with MF = assay: Phase 2 safety: adverse events, serious adverse events and deaths; assay type: in vivo, human
Method: At screening/baseline, patients underwent a medical history, physical examination, vital sign assessment, ECOG PS assessment, electrocardiogram, and assessment of hematologic parameters and blood chemistry. Hematology/blood chemistry, physical examinations, and vital sign assessments were performed throughout treatment. Toxicity was assessed using the National Cancer Institute Common Terminology Criteria for Adverse Events (NCIC-CTCAE), version 3.0, with relationship to treatment assigned by the investigator and were recorded from the first dose of pacritinib until 30 days after the last dose. Bone marrow biopsy and/or aspirate samples were drawn at baseline, on day 1 of cycle 4 and cycle 10, as clinically indicated, and at the termination visit. Disease response and progression were determined using the relevant International Working Group (IWG) criteria.
The efficacy-evaluable population included those patients with a baseline and corresponding follow-up value. The safety population included all enrolled patients who received ≥1 dose of pacritinib.

SMILES: C1=C/COCc2cc(ccc2OCCN2CCCC2)Nc2nccc(n2)-c2cccc(c2)COC/1 [pacritinib, 11-(2-pyrrolidin-1-yl-ethoxy)-14,19-dioxa-5,7,26-triaza-tetracyclo[19.3.1.1(2,6). 1(8,12)]heptacosa-1(25),2(26),3,5,8,10,12(27),16,21,23-decaene]
- Dose–response correlation of clinical benefit ([1]; phase 1): No clear dose–response correlation was observed
- Overall clinical benefit rate ([1]; phase 1, n = 43): 86.0%
- Patients achieving clinical improvement ([1]; phase 1, n = 43): 13 patients
- Patients having stable disease ([1]; phase 1, n = 43): 24 patients
- Clinical benefit rate ([1]; phase 1, patients with AML (3/7)): 42.9%
- Clinical benefit rate ([1]; phase 1, patients with MF (34/36)): 94.4%
- Relation of deaths to pacritinib (patients with MF; phase 2): None of the deaths were considered related to pacritinib
- SAEs considered related to pacritinib (patients with MF; phase 2): two
- Gastrointestinal toxicities (patients with MF; phase 2, n = 31): reported by all patients
- Grade 3/4 AE: anemia (patients with MF; phase 2, n = 31): 5 n
- Grade 3/4 AE: bone pain (patients with MF; phase 2, n = 31): 4 n
- Grade 3/4 AE: diarrhea (patients with MF; phase 2, n = 31): 5 n
- Grade 3/4 AE: fatigue (patients with MF; phase 2, n = 31): 5 n
- Grade 3 or 4 thrombocytopenia (patients with MF; phase 2, n = 31): three
- Grade 3 treatment-related AEs (patients with MF; phase 2, n = 31): 22.6%
- Grade 4 treatment-related AEs (patients with MF; phase 2, n = 31): No grade 4/5 treatment-related AEs were reported
- Leukopenia, neutropenia, lymphopenia (patients with MF; phase 2, n = 31): No leukopenia, neutropenia, or lymphopenia was reported
- Patients who discontinued pacritinib because of an AE (patients with MF; phase 2, n = 31): 9.7%
- Patients with SAEs (patients with MF; phase 2, n = 31): 41.9%
- Patients with at least one grade 3/4 AE (patients with MF; phase 2, n = 31): 71.0%
- Patients with dose interruptions because of AEs (patients with MF; phase 2, n = 31): Fourteen
- Patients with dose reductions because of AEs (patients with MF; phase 2, n = 31): 14 patients
- Treatment-related AE: diarrhea (patients with MF; phase 2, n = 31): 90.3%
- Treatment-related AE: fatigue (patients with MF; phase 2, n = 31): 12.9%
- Treatment-related AE: nausea (patients with MF; phase 2, n = 31): 48.4%
- Treatment-related AE: vomiting (patients with MF; phase 2, n = 31): 29.0%
- Treatment-emergent AE: Abdominal pain (patients with MF; phase 2, n = 31, Any grade): 9 (29.0) n (%)
- Treatment-emergent AE: Anemia (patients with MF; phase 2, n = 31, Any grade): 6 (19.4) n (%)
- Treatment-emergent AE: Asthenia (patients with MF; phase 2, n = 31, Any grade): 5 (16.1) n (%)
- Treatment-emergent AE: Bone pain (patients with MF; phase 2, n = 31, Any grade): 6 (19.4) n (%)
- Treatment-emergent AE: Cardiac murmur (patients with MF; phase 2, n = 31, Any grade): 4 (12.9) n (%)
- Treatment-emergent AE: Constipation (patients with MF; phase 2, n = 31, Any grade): 5 (16.1) n (%)
- Treatment-emergent AE: Diarrhea (patients with MF; phase 2, n = 31, Any grade): 28 (90.3) n (%)
- Treatment-emergent AE: Dyspnea (patients with MF; phase 2, n = 31, Any grade): 5 (16.1) n (%)
- Treatment-emergent AE: Edema peripheral (patients with MF; phase 2, n = 31, Any grade): 12 (38.7) n (%)
- Treatment-emergent AE: Fatigue (patients with MF; phase 2, n = 31, Any grade): 18 (58.1) n (%)
- Treatment-emergent AE: Hyperuricemia (patients with MF; phase 2, n = 31, Any grade): 4 (12.9) n (%)
- Treatment-emergent AE: Insomnia (patients with MF; phase 2, n = 31, Any grade): 9 (29.0) n (%)
- Treatment-emergent AE: Nausea (patients with MF; phase 2, n = 31, Any grade): 16 (51.6) n (%)
- Treatment-emergent AE: Night sweats (patients with MF; phase 2, n = 31, Any grade): 7 (22.6) n (%)
- Treatment-emergent AE: Pain in extremity (patients with MF; phase 2, n = 31, Any grade): 8 (25.8) n (%)
- Treatment-emergent AE: Pruritus (patients with MF; phase 2, n = 31, Any grade): 9 (29.0) n (%)
- Treatment-emergent AE: Pyrexia (patients with MF; phase 2, n = 31, Any grade): 4 (12.9) n (%)
- Treatment-emergent AE: Rash (patients with MF; phase 2, n = 31, Any grade): 4 (12.9) n (%)
- Treatment-emergent AE: Upper respiratory tract infection (patients with MF; phase 2, n = 31, Any grade): 4 (12.9) n (%)
- Treatment-emergent AE: Vomiting (patients with MF; phase 2, n = 31, Any grade): 11 (35.5) n (%)
- Treatment-emergent AE: Weight decreased (patients with MF; phase 2, n = 31, Any grade): 4 (12.9) n (%)
- Treatment-emergent AE: Abdominal pain (patients with MF; phase 2, n = 31, Grade 1): 3 (9.7) n (%)
- Treatment-emergent AE: Anemia (patients with MF; phase 2, n = 31, Grade 1): 0 n (%)
- Treatment-emergent AE: Asthenia (patients with MF; phase 2, n = 31, Grade 1): 4 (12.9) n (%)
- Treatment-emergent AE: Bone pain (patients with MF; phase 2, n = 31, Grade 1): 1 (3.2) n (%)
- Treatment-emergent AE: Cardiac murmur (patients with MF; phase 2, n = 31, Grade 1): 0 n (%)
- Treatment-emergent AE: Constipation (patients with MF; phase 2, n = 31, Grade 1): 5 (16.1) n (%)
- Treatment-emergent AE: Diarrhea (patients with MF; phase 2, n = 31, Grade 1): 14 (45.2) n (%)
- Treatment-emergent AE: Dyspnea (patients with MF; phase 2, n = 31, Grade 1): 4 (12.9) n (%)
- Treatment-emergent AE: Edema peripheral (patients with MF; phase 2, n = 31, Grade 1): 6 (19.4) n (%)
- Treatment-emergent AE: Fatigue (patients with MF; phase 2, n = 31, Grade 1): 2 (6.5) n (%)
- Treatment-emergent AE: Hyperuricemia (patients with MF; phase 2, n = 31, Grade 1): 2 (6.5) n (%)
- Treatment-emergent AE: Insomnia (patients with MF; phase 2, n = 31, Grade 1): 7 (22.6) n (%)
- Treatment-emergent AE: Nausea (patients with MF; phase 2, n = 31, Grade 1): 9 (29.0) n (%)
- Treatment-emergent AE: Night sweats (patients with MF; phase 2, n = 31, Grade 1): 4 (12.9) n (%)
- Treatment-emergent AE: Pain in extremity (patients with MF; phase 2, n = 31, Grade 1): 5 (16.1) n (%)
- Treatment-emergent AE: Pruritus (patients with MF; phase 2, n = 31, Grade 1): 4 (12.9) n (%)
- Treatment-emergent AE: Pyrexia (patients with MF; phase 2, n = 31, Grade 1): 4 (12.9) n (%)
- Treatment-emergent AE: Rash (patients with MF; phase 2, n = 31, Grade 1): 2 (6.5) n (%)
- Treatment-emergent AE: Upper respiratory tract infection (patients with MF; phase 2, n = 31, Grade 1): 3 (9.7) n (%)
